Source: patent publication US20080194574A1, “Pyrazine Derivatives As Effective Compounds Against Infectious Diseases” (AXXIMA PHARMACEUTICALS AG, priority 2003, published 2008)

Biological target: T1, viral kinase pUL-97 (Human cytomegalovirus, UniProt P16788)
T1 construct: The pUL-97 gene was cloned into a baculovirus vector; GST (glutathione S-transferase) (N); made in house; host or cells: Sf9 insect cells, baculovirus
Experiment: UL97 kinase assay on Immobilon plate
Format: biochemical
Conditions: inhibition of UL 97 kinase activity; class by IC50 / % inhibition at 10 μM or 100 μM; read-out: Activity Class [A, B, C]
Outline: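 GST-pUL97 from baculovirus-infected Sf9 cells phosphorylated myelin basic protein with ATP (3 μM in the added assay buffer) and γ-[33P]ATP in Tris-HCl pH 7.5 buffer with MnCl2 and DTT. Reaction ran 1 h at 30 °C with graded compound concentrations and was stopped with EDTA. 33P incorporation was measured by scintillation after filter capture and phosphoric acid washes.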

T1 sequence (P16788 whole entry): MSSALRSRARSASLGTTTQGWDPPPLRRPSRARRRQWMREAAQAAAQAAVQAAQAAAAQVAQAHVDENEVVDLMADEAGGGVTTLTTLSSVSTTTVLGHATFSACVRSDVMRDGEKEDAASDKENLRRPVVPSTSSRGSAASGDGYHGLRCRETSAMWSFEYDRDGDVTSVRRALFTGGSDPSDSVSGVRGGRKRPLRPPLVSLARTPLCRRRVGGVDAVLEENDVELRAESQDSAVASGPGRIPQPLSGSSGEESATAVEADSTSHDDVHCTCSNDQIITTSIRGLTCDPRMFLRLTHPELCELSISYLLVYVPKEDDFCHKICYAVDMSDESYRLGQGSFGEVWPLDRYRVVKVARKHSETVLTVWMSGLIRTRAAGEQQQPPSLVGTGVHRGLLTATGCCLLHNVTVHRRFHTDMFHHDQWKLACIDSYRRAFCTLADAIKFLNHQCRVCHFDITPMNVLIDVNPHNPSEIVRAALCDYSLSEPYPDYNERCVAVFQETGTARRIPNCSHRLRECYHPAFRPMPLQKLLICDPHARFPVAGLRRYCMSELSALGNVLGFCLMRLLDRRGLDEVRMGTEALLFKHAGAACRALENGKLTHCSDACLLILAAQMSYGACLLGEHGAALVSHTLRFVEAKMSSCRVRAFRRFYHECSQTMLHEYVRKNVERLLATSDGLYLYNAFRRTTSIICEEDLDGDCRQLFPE

For Cc1ccc(-c2cncc(N3CCN(c4ccncc4)CC3)n2)cc1 [compound 220, 4-Pyridin-4-yl-6′-p-tolyl-3,4,5,6-tetrahydro-2H-[1,2′]bipyrazinyl], which IC50 is on record?
Its IC50 is 1 to 10 µM.

COc1cccc(N2CCN(c3cncc(-c4ccc5ccccc5c4)n3)CC2)c1 [compound 322, 4-(3-Methoxy-phenyl)-6′-naphthalen-2-yl-3,4,5,6-tetrahydro-2H-[1,2′]bipyrazinyl] was tested. Which IC50 did it give?
Its IC50 is 1 to 10 µM.

How did the IC50 turn out when CC(=O)c1ccccc1-c1cncc(N2CCN(c3cccc(Cl)c3)CC2)n1 [compound 236, 1-{2-[4-(3-Chloro-phenyl)-3,4,5,6-tetrahydro-2H-[1,2′]bipyrazinyl-6′-yl]-phenyl}-ethanone] was run?
Its IC50 is 10 to 100 µM.

How did the IC50 turn out when CC(=O)c1ccc(-c2cncc(N3CCN(c4cccc(C)c4C)CC3)n2)s1 [compound 296, 1-{5-[4-(2,3-Dimethyl-phenyl)-3,4,5,6-tetrahydro-2H-[1,2′]bipyrazinyl-6′-yl]-thiophen-2-yl}-ethanone] was run?
The IC50 was 10 to 100 µM.

For Cc1ccc(N2CCN(c3cncc(-c4ccc5ccccc5c4)n3)CC2)cc1C [compound 335, 4-(3,4-Dimethyl-phenyl)-6′-naphthalen-2-yl-3,4,5,6-tetrahydro-2H-[1,2′]bipyrazinyl], which IC50 is on record?
Its IC50 is 1 to 10 µM.

CC(=O)c1ccc(N2CCN(c3cncc(-c4ccccc4Oc4ccccc4)n3)CC2)cc1 [compound 215, 1-{4-[6′-(2-Phenoxy-phenyl)-2,3,5,6-tetrahydro-[1,2′]bipyrazinyl-4-yl]-phenyl}-ethanone] was tested. Which IC50 did it give?
Its IC50 is 10 to 100 µM.

Which IC50 does the source give for Cc1cccc(-c2cncc(N3CCN(c4ccc(Cl)cc4)CC3)n2)c1 [compound 325, 4-(4-Chloro-phenyl)-6′-m-tolyl-3,4,5,6-tetrahydro-2H-[1,2′]bipyrazinyl] here?
The IC50 was 10 to 100 µM.

With COc1ccc(-c2cncc(N3CCN(c4ccc(C)cc4)CC3)n2)cc1F [compound 265, 6′-(3-Fluoro-4-methoxy-phenyl)-4-p-tolyl-3,4,5,6-tetrahydro-2H-[1,2′]bipyrazinyl] as the compound, how does the IC50 read?
The IC50 was 10 to 100 µM.

With Fc1ccc(N2CCN(c3cncc(-c4ccc5ccccc5c4)n3)CC2)c(F)c1 [compound 199, 4-(2,4-Difluoro-phenyl)-6′-naphthalen-2-yl-3,4,5,6-tetrahydro-2H-[1,2′]bipyrazinyl] as the compound, how does the IC50 read?
Its IC50 is 1 to 10 µM.

For COc1cccc(N2CCN(c3cncc(-c4ccoc4)n3)CC2)c1 [compound 324, 6′-Furan-3-yl-4-(3-methoxy-phenyl)-3,4,5,6-tetrahydro-2H-[1,2′]bipyrazinyl], which IC50 is on record?
Its IC50 is 10 to 100 µM.

For COc1ccc(N2CCN(c3cncc(-c4ccc(C(C)(C)C)cc4)n3)CC2)cc1OC [compound 263, 6′-(4-tert-Butyl-phenyl)-4-(3,4-dimethoxy-phenyl)-3,4,5,6-tetrahydro-2H-[1,2′]bipyrazinyl], which IC50 is on record?
Its IC50 is 10 to 100 µM.

Which IC50 does the source give for OCc1ccc(-c2cncc(N3CCN(c4ccccn4)CC3)n2)cc1 [compound 351, [4-(4-Pyridin-2-yl-3,4,5,6-tetrahydro-2H-[1,2′]bipyrazinyl-6′-yl)-phenyl]-methanol] here?
Its IC50 is 1 to 10 µM.

With COc1ccc(Cl)cc1-c1cncc(N2CCN(c3ccncc3)CC2)n1 [compound 259, 6′-(5-Chloro-2-methoxy-phenyl)-4-pyridin-4-yl-3,4,5,6-tetrahydro-2H-[1,2′]bipyrazinyl] as the compound, how does the IC50 read?
Its IC50 is 10 to 100 µM.

For COc1ccc(N2CCN(c3cncc(-c4ccc(C(F)(F)F)cc4)n3)CC2)cc1 [compound 355, 4-(4-Methoxy-phenyl)-6′-(4-trifluoromethyl-phenyl)-3,4,5,6-tetrahydro-2H-[1,2′]bipyrazinyl], which IC50 is on record?
The IC50 was 1 to 10 µM.

With Cc1ccc(-c2cncc(N3CCN(c4ccc(C)cc4)CC3)n2)cc1 [compound 229, 4,6′-Di-p-tolyl-3,4,5,6-tetrahydro-2H-[1,2′]bipyrazinyl] as the compound, how does the IC50 read?
Its IC50 is 10 to 100 µM.

For c1ccc2c(-c3cncc(N4CCN(c5cnccn5)CC4)n3)csc2c1 [compound 332, 6-Benzo[b]thiophen-3-yl-2′,3′,5′,6′-tetrahydro-[2,1′;4′,2″]terpyrazine], which IC50 is on record?
The IC50 was under 1 µM.

How did the IC50 turn out when COc1ccccc1N1CCN(c2cncc(-c3ccccc3C(C)=O)n2)CC1 [compound 240, 1-{2-[4-(2-Methoxy-phenyl)-3,4,5,6-tetrahydro-2H-[1,2′]bipyrazinyl-6′-yl]-phenyl}-ethanone] was run?
The IC50 was 10 to 100 µM.

How did the IC50 turn out when CCOc1ccccc1-c1cncc(N2CCN(c3ccc(C(C)=O)cc3)CC2)n1 [compound 212, 1-{4-[6′-(2-Ethoxy-phenyl)-2,3,5,6-tetrahydro-[1,2′]bipyrazinyl-4-yl]-phenyl}-ethanone] was run?
The IC50 was 10 to 100 µM.

For Fc1ccc(N2CCN(c3cncc(-c4ccc5ccccc5c4)n3)CC2)cc1 [compound 267, 4-(4-Fluoro-phenyl)-6′-naphthalen-2-yl-3,4,5,6-tetrahydro-2H-[1,2′]bipyrazinyl], which IC50 is on record?
The IC50 was under 1 µM.

For COc1cccc(N2CCN(c3cncc(-c4ccccc4)n3)CC2)c1 [compound 365, 4-(3-Methoxy-phenyl)-6′-phenyl-3,4,5,6-tetrahydro-2H-[1,2′]bipyrazinyl], which IC50 is on record?
Its IC50 is 10 to 100 µM.

Same assay, conditions: inhibition of UL 97 kinase activity; class by IC50 / % inhibition at 10 or 100 μM; read-out: Activity Class [A, B, C]

Which IC50 does the source give for CC(=O)c1ccc(N2CCN(c3cncc(-c4cccc(C)c4)n3)CC2)cc1 [compound 147, 1-[4-(6′-m-Tolyl-2,3,5,6-tetrahydro-[1,2′]bipyrazinyl-4-yl)-phenyl]-ethanone] here?
The IC50 was 10 to 100 µM.

How did the IC50 turn out when COc1ccc(N2CCN(c3cncc(-c4cccc(OC)c4OC)n3)CC2)cc1OC [compound 171, 4-(3,4-Dimethoxy-phenyl)-6′-(2,3-dimethoxy-phenyl)-3,4,5,6-tetrahydro-2H-[1,2′]bipyrazinyl] was run?
The IC50 was 10 to 100 µM.

With CC(=O)Nc1cccc(-c2cncc(N3CCN(c4cccc5[nH]ccc45)CC3)n2)c1 [compound 36, N-{3-[4-(1H-Indol-4-yl)-3,4,5,6-tetrahydro-2H-[1,2′]bipyrazinyl-6′-yl]-phenyl}-acetamide] as the compound, how does the IC50 read?
Its IC50 is 10 to 100 µM.

COc1ccccc1N1CCN(c2cncc(-c3ccsc3)n2)CC1 [compound 85, 4-(2-Methoxy-phenyl)-6′-thiophen-3-yl-3,4,5,6-tetrahydro-2H-[1,2′]bipyrazinyl] was tested. Which IC50 did it give?
Its IC50 is 10 to 100 µM.

For Fc1ccc(-c2cncc(N3CCN(c4ccccn4)CC3)n2)c(F)c1 [compound 19, 6′-(2,4-Difluoro-phenyl)-4-pyridin-2-yl-3,4,5,6-tetrahydro-2H-[1,2′]bipyrazinyl], which IC50 is on record?
Its IC50 is 10 to 100 µM.

For COc1ccc(N2CCN(c3cncc(-c4ccccc4Oc4ccccc4)n3)CC2)cc1OC [compound 174, 4-(3,4-Dimethoxy-phenyl)-6′-(2-phenoxy-phenyl)-3,4,5,6-tetrahydro-2H-[1,2′]bipyrazinyl], which IC50 is on record?
Its IC50 is 10 to 100 µM.

Fc1ccc(-c2cncc(N3CCN(c4ccccc4)CC3)n2)cc1 [compound 111, 6′-(4-Fluoro-phenyl)-4-phenyl-3,4,5,6-tetrahydro-2H-[1,2′]bipyrazinyl] was tested. Which IC50 did it give?
Its IC50 is 1 to 10 µM.

With c1cc(N2CCN(c3cncc(-c4ccsc4)n3)CC2)ccn1 [compound 79, 4-Pyridin-4-yl-6′-thiophen-3-yl-3,4,5,6-tetrahydro-2H-[1,2′]bipyrazinyl] as the compound, how does the IC50 read?
Its IC50 is 1 to 10 µM.

Fc1ccccc1N1CCN(c2cncc(-c3cc(C(F)(F)F)cc(C(F)(F)F)c3)n2)CC1 [compound 196, 6′-(3,5-Bis-trifluoromethyl-phenyl)-4-(2-fluoro-phenyl)-3,4,5,6-tetrahydro-2H-[1,2′]bipyrazinyl] was tested. Which IC50 did it give?
The IC50 was 10 to 100 µM.

Which IC50 does the source give for Clc1cccc(N2CCN(c3cncc(-c4ccc5ccccc5c4)n3)CC2)c1 [compound 81, 4-(3-Chloro-phenyl)-6′-naphthalen-2-yl-3,4,5,6-tetrahydro-2H-[1,2′]bipyrazinyl] here?
Its IC50 is 10 to 100 µM.

Which IC50 does the source give for c1ccc(-c2cncc(N3CCN(c4ccccc4)CC3)n2)cc1 [compound 109, 4,6′-Diphenyl-3,4,5,6-tetrahydro-2H-[1,2′]bipyrazinyl] here?
Its IC50 is 1 to 10 µM.

For Cc1ccc(-c2cncc(N3CCN(c4cccc(C(F)(F)F)c4)CC3)n2)cc1 [compound 155, 6′-p-Tolyl-4-(3-trifluoromethyl-phenyl)-3,4,5,6-tetrahydro-2H-[1,2′]bipyrazinyl], which IC50 is on record?
Its IC50 is 10 to 100 µM.

Fc1ccc(-c2cncc(N3CCN(c4ccncc4)CC3)n2)cc1Cl [compound 33, 6′-(3-Chloro-4-fluoro-phenyl)-4-pyridin-4-yl-3,4,5,6-tetrahydro-2H-[1,2′]bipyrazinyl] was tested. Which IC50 did it give?
The IC50 was under 1 µM.

CC(=O)c1ccc(-c2cncc(N3CCN(c4cccc(Cl)c4)CC3)n2)cc1 [compound 103, 1-{4-[4-(3-Chloro-phenyl)-3,4,5,6-tetrahydro-2H-[1,2′]bipyrazinyl-6′-yl]-phenyl}-ethanone] was tested. Which IC50 did it give?
The IC50 was 1 to 10 µM.

For “6′-Benzo[b]thiophen-2-yl-4-pyridin-4-yl-3,4,5,6-tetrahydro-2H-[1,2′]bipyrazinyl [compound 69]”, which IC50 is on record?
Its IC50 is under 1 µM.

Which IC50 does the source give for c1ccc(Oc2ccc(-c3cncc(N4CCN(c5ccccc5)CC4)n3)cc2)cc1 [compound 189, 6′-(4-Phenoxy-phenyl)-4-phenyl-3,4,5,6-tetrahydro-2H-[1,2′]bipyrazinyl] here?
Its IC50 is 10 to 100 µM.

How did the IC50 turn out when OCc1ccc(-c2cncc(N3CCN(c4ccccc4)CC3)n2)cc1 [compound 117, [4-(4-Phenyl-3,4,5,6-tetrahydro-2H-[1,2′]bipyrazinyl-6′-yl)-phenyl]-methanol] was run?
The IC50 was 1 to 10 µM.

Which IC50 does the source give for c1ccc(-c2cncc(N3CCN(c4ccccn4)CC3)n2)cc1 [compound 49] here?
The IC50 was 1 to 10 µM.

With OCC1CCCN1c1cncc(-c2cc3ccccc3o2)n1 (stereo not drawn) [compound 24, [1-(6-Benzofuran-2-yl-pyrazin-2-yl)-pyrrolidin-2-yl]-methanol] as the compound, how does the IC50 read?
The IC50 was 1 to 10 µM.

Which IC50 does the source give for Clc1cccc(N2CCN(c3cncc(-c4ccsc4)n3)CC2)c1 [compound 80, 4-(3-Chloro-phenyl)-6′-thiophen-3-yl-3,4,5,6-tetrahydro-2H-[1,2′]bipyrazinyl] here?
Its IC50 is 10 to 100 µM.

Which IC50 does the source give for Fc1ccc(-c2cncc(N3CCN(c4ccc(F)cc4)CC3)n2)cc1 [compound 138, 4,6′-Bis-(4-fluoro-phenyl)-3,4,5,6-tetrahydro-2H-[1,2′]bipyrazinyl] here?
Its IC50 is 10 to 100 µM.

OCc1cccc(-c2cncc(N3CCN(c4ccncc4)CC3)n2)c1 [compound 52, [3-(4-Pyridin-4-yl-3,4,5,6-tetrahydro-2H-[1,2′]bipyrazinyl-6′-yl)-phenyl]-methanol] was tested. Which IC50 did it give?
Its IC50 is 10 to 100 µM.
